In ChEMBL document CHEMBL3593228, “Hedgehog inhibitors from Artocarpus communis and Hyptis suaveolens” (Bioorg Med Chem, 2015):
Active and inactive are the calls of the source. No cut-off for these calls is given here.

Legend:
[1] = Cytotoxicity against mouse C3H10T1/2 cells after 24 hrs by fluorometric microculture assay; format: cell-based; conditions: C3H 10T1/2, 24 h
[2] = Cytotoxicity against Hh signaling abnormally activated human PANC1 cells after 24 hrs by fluorometric microculture assay; format: functional, cell-based; conditions: PANC-1, 24 h
[3] = Inhibition of hedgehog signaling pathway in human HaCaT cells assessed as GLI1-mediated transcriptional activity after 12 hrs by luciferase assay; format: cell-based
[4] = tested on: DU-145; experiment: Cytotoxicity against Hh signaling abnormally activated human DU145 cells after 24 hrs by fluorometric microculture assay; format: functional, cell-based; conditions: DU-145, 24 h
[5] = Inhibition of hedgehog signaling pathway in human DU145 cells assessed as reduction of BCL2 expression at 7 to 13.9 uM after 12 hrs by Western blotting; format: cell-based; conditions: DU-145
[6] = Inhibition of hedgehog signaling pathway in human HaCaT cells assessed as reduction of BCL2 expression at 13.9 uM after 12 hrs by Western blotting; format: cell-based
[7] = target: T1, Zinc finger protein GLI1 (Homo sapiens) (UniProt P08151); experiment: Inhibition of GLI1-DNA (unknown origin) complex formation at 15 to 150 uM after 20 mins by electrophoretic mobility shift assay
T1 sequence (whole entry): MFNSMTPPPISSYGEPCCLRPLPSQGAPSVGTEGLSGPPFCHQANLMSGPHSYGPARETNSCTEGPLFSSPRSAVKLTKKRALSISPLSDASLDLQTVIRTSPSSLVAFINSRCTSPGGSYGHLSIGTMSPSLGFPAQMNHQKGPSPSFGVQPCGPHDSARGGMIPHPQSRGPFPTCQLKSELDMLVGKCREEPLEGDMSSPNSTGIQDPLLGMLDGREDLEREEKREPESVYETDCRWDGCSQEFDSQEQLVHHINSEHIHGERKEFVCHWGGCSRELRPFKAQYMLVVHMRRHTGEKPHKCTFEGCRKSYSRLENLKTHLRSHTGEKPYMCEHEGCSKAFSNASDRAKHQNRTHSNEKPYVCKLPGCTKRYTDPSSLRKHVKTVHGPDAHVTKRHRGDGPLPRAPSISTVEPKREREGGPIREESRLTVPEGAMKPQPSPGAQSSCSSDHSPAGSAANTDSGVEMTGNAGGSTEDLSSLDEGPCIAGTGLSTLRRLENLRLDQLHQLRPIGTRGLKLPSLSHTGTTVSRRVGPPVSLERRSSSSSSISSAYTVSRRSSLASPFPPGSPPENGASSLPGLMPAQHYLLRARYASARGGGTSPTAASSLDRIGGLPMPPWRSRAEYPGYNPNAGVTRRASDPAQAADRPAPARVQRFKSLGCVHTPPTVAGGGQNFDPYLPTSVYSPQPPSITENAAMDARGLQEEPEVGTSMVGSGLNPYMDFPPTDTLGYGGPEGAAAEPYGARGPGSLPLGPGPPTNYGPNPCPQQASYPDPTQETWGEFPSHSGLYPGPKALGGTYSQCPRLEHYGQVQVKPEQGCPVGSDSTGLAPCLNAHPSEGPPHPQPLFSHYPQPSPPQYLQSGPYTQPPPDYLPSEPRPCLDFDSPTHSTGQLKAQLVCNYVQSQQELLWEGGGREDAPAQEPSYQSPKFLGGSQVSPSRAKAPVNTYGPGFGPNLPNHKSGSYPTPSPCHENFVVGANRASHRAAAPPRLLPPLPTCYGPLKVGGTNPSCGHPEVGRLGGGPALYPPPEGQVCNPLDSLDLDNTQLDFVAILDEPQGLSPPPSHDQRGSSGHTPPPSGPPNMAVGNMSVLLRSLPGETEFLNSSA

[8] = Inhibition of hedgehog signaling pathway in human HaCaT cells assessed as reduction of BCL2 expression after 12 hrs by Western blotting; format: cell-based
[9] = Inhibition of hedgehog signaling pathway in human HaCaT cells assessed as reduction of BCL2 expression at 7.6 uM after 12 hrs by Western blotting; format: cell-based
[10] = target: T1, Zinc finger protein GLI1 (Homo sapiens); experiment: Inhibition of GLI1-DNA (unknown origin) complex formation at 15 to 30 uM after 20 mins by electrophoretic mobility shift assay

SMILES	IC50 [1]	IC50 [2]	IC50 [3]	inhibition [3]	IC50 [4]	inhibition [5]	inhibition [6]	inhibition [7]	inhibition [8]	inhibition [9]	inhibition [10]
CC(C)=CCCC1(C)Oc2c(O)ccc(CCC(=O)c3ccc(O)cc3O)c2CC1O (stereo not given)	> 75 µM	50 µM	40.1 µM	Dose-dependent effect							
C=C1C(=O)O[C@H]2/C=C(\C)C[C@@H]3C=C(CC[C@@H](OO)C(=C)CC[C@H]12)C(=O)O3	> 27.8 µM	15.7 µM	4.7 µM	Dose-dependent effect	18.8 µM	Active	Active	Active	Dose-dependent effect		
C/C(=C\Cc1c(CCC(=O)c2ccc(O)cc2O)ccc(O)c1O)CCCC(C)(C)O	> 75 µM	> 75 µM	> 75 µM								
CC(C)(O)CCCC1(C)CCc2c(CCC(=O)c3ccc(O)cc3O)ccc(O)c2O1 (stereo not given)		36.7 µM	29.5 µM								
C=C1C(=O)O[C@H]2/C=C(\C)C[C@@H]3C=C(C/C=C/[C@@](C)(O)CC[C@H]12)C(=O)O3	> 50 µM	46.9 µM	16.3 µM								
C=C1C(=O)O[C@H]2/C=C(\C)C[C@@H]3C=C(CC/C=C(\C)CC[C@H]12)C(=O)O3	> 30.5 µM	12.1 µM	4 µM	Dose-dependent effect	32.6 µM	Active		inactive	Dose-dependent effect	Active	
CC(C)=CCC/C(C)=C/Cc1c(CCC(=O)c2ccc(O)cc2O)ccc(O)c1O	> 75 µM	42.9 µM	23.6 µM	Dose-dependent effect	80.6 µM						Active
CC(C)=CCCC1(C)CCc2c(CCC(=O)c3ccc(O)cc3O)ccc(O)c2O1 (stereo not given)	> 75 µM	59.5 µM	44.2 µM	Dose-dependent effect							
C=C1C(=O)O[C@H]2/C=C(\C)C[C@@H]3C=C(C/C=C/[C@@](C)(OO)CC[C@H]12)C(=O)O3	> 55.6 µM	17.9 µM	7.6 µM	Dose-dependent effect	30.3 µM	Active		Active	Dose-dependent effect		
COC(C)(C)CCCC1(C)CCc2c(CCC(=O)c3ccc(O)cc3O)ccc(O)c2O1 (stereo not given)		48.3 µM	39.9 µM								
CC(C)=CCC/C(C)=C/Cc1c(O)cc2c(c1O)C(=O)C[C@@H](c1ccc(O)cc1)O2 [BONANNIONE A]	> 75 µM	29.9 µM	14.6 µM	Dose-dependent effect							
CC1(C)CCC[C@]2(C)Oc3c(O)ccc(CCC(=O)c4ccc(O)cc4O)c3C[C@@H]12	> 75 µM	34.3 µM	40.7 µM	Dose-dependent effect	53.7 µM						
CC(C)(O)CCCC1(C)Oc2c(O)ccc(CCC(=O)c3ccc(O)cc3O)c2CC1O (stereo not given)		58.8 µM	43.5 µM								
COC(C)(C)CCC/C(C)=C/Cc1c(CCC(=O)c2ccc(O)cc2O)ccc(O)c1O	> 75 µM	> 75 µM	> 75 µM								Active
